According to patent publication US10696665B2, “Mutant IDH1 inhibitors” (Eli Lilly and Company, priority 2016, dated 2020):

target: Wild-type IDH1 (Homo sapiens (Human), UniProt O75874); assay: Biochemical assay for wild-type IDH1 enzyme (isocitrate to αKG); settings: mean ± SEM
Method: IDH1 and IDH2 enzymes catalyze the conversion of isocitrate to αKG. Wild-type IDH1 (National Center for Biotechnology Information, Accession: NP_001269316.1) and IDH2 (National Center for Biotechnology Information, Accession: EAX02082.1) proteins containing N-terminal His-tag are expressed in E. coli and purified using nickel affinity chromatography by methods commonly used and well known to those skilled in the art. The enzyme assays are carried out in V-bottom 96 well polypropylene plates containing 100 mM Tris-HCl buffer at pH 7.5, 1 mM DTT, 0.005% TRITON™ X-100, 120 mM NaCl. For the IDH1 wild-type assay isocitrate, NADP^+ and MnCl2 are included at the concentrations of 85 μM, 50 μM and 20 μM respectively. For the IDH2 wild-type assay isocitrate, NADP^+ and MnCl2 are included at the concentrations of 30 μM, 50 μM and 10 μM respectively. Inhibitors dissolved in a DMSO stock solution are diluted in the reaction mixture at a final DMSO concentration of 4%. The enzyme assay is terminated (quenched) by adding ACN (50:50) containing d (d6-αKG) as an internal standard for mass spectrometry analysis. Ten microliters of reaction mixture is combined with 100 μL of water, 50 μL of 1 M O-benzylhydroxylamine in pyridine buffer (8.6% pyridine, pH 5), and 50 μL of 1 M EDC in pyridine buffer. Following derivatization at room temperature for one hour, samples are extracted with EtOAc (600 μL). […] of the upper layer is removed, dried under heated nitrogen, and reconstituted with MeOH/water (1:1) (100 μL). Ten μL of derivatized sample is injected onto an LC-MS system consisting of a Shimadzu Prominence 20A HPLC system and a Thermo Quantum Ultra™ triple quadrupole mass spectrometer. Analytes are separated on a Waters XBridge™ C18 column (2.1×50 mm, […]) with a flow rate of 0.6 mL/minute. Mobile phase A is 0.1% formic acid in water and mobile phase B is MeOH. The αKG signal detected is transformed into analyte concentration using a calibration curve generated using known αKG concentrations. […] IC50 values are obtained from the individual % inhibition values at different compound concentrations using a 4-parameter equation. These calculations are carried out using Activity Base (IDBS) or Screener (Genedata) data analysis programs.

Wild-type IDH1, sequence (O75874 whole entry): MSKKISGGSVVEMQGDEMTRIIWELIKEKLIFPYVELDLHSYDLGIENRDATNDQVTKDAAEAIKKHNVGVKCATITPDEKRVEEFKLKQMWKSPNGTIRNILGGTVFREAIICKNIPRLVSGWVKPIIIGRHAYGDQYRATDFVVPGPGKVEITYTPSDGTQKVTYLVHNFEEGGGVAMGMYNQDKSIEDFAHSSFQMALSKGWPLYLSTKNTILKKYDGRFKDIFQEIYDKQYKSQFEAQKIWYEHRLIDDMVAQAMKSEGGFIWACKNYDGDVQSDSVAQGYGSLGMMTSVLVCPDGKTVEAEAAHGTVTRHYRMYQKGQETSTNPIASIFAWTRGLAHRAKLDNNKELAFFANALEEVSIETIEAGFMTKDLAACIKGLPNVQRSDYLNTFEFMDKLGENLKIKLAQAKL

Going from `C=CC(=O)N1CCN(Cc2ccc([C@H](C)Nc3nccc(N4C(=O)OC[C@@H]4C(C)C)n3)cc2)CC1` [Example 1, (S)-3-(2-(((S)-1-(4-((4-Acryloylpiperazin-1-yl)methyl)phenyl)ethyl)amino)pyrimidin-4-yl)-4-isopropyloxazolidin-2-one] to `C=CC(=O)N1CCN(Cc2ccc([C@H](C)Nc3nccc(N4C(=O)OC[C@@H]4C)n3)cc2)CC1` [Example 3, (S)-3-(2-(((S)-1-(4-((4-acryloylpiperazin-1-yl)methyl)phenyl)ethyl)amino)pyrimidin-4-yl)-4-methyloxazolidin-2-one], the IC50 rises from 1560 ± 200 nM to 15500 ± 500 nM (9.9-fold).

Going from `C=CC(=O)N1CCN(Cc2ccc([C@H](C)Nc3nccc(N4C(=O)OC[C@@H]4CC)n3)cc2)CC1` [Example 2, (S)-3-(2-(((S)-1-(4-((4-acryloylpiperazin-1-yl)methyl)phenyl)ethyl)amino)pyrimidin-4-yl)-4-ethyloxazolidin-2-one] to `C=CC(=O)N1CCN(Cc2ccc([C@H](C)Nc3nccc(N4C(=O)OCC4(C)C)n3)cc2)CC1` [Example 4, (S)-3-(2-((1-(4-((4-acryloylpiperazin-1-yl)methyl)phenyl)ethyl)amino)pyrimidin-4-yl)-4,4-dimethyloxazolidin-2-one], the IC50 rises from 3150 ± 70 nM to 6760 ± 1350 nM (2.1-fold). The first is the more potent here.

`C=CC(=O)N1CCN(Cc2ccc([C@H](C)Nc3ncc(F)c(N4C(=O)OC[C@@H]4C(C)C)n3)cc2)CC1` [Example 5, (S)-3-(2-(((S)-1-(4-((4-acryloylpiperazin-1-yl)methyl)phenyl)ethyl)amino)-5-fluoropyrimidin-4-yl)-4-isopropyloxazolidin-2-one] and `C=CC(=O)N1CCN(Cc2ccc([C@H](C)Nc3nc(F)cc(N4C(=O)OCC4(C)C)n3)cc2)CC1` [Example 11, (S)-3-(2-((1-(4-((4-acryloylpiperazin-1-yl)methyl)phenyl)ethyl)amino)-6-fluoropyrimidin-4-yl)-4,4-dimethyloxazolidin-2-one] are within error of each other in IC50: 2460 ± 300 nM for the first, 2200 nM for the second.

`C=CC(=O)N1CCN(C(CC2CC2)c2ccc([C@H](C)Nc3nccc(N4C(=O)OC[C@@H]4[C@@H](C)O)n3)cc2)CC1` (stereo partly shown) [Example 26] gave an IC50 of 145 nM.
